# Laboratory results reported in patent EP1178110A1, “EDG8 receptor for sphingosine 1-phosphate , its preparation and use” (Aventis Pharma Deutschland GmbH, priority 2000, dated 2002).
# How the values were obtained:
# human EDG8, SEQ ID NO. 2 = experiment: FLIPR assay of intracellular Ca2+ mobilization in transiently transfected CHO cells; type: cell-based; details: for increase in intracellular Ca^2+: lipids at 10, 100 and 1000 nM, CHO cells with EDG8 and Gα16 or Gαqi5 (Fig.3), LPA and DHS1P active at 100 and 1000 nM, SPC and LPC tested up to 1 µM
# Experimental: (§1) CHO-K1 cells were grown in basal ISCOVE medium supplemented with 10% fetal bovine serum at 37°C in a humidified 5% CO2 incubator. For transfections, 2 x 10^5 cells were seeded into 35-mm dishes. About 24 hr later cells were transiently transfected at 50-80% confluency with the indicated receptor and G-protein constructs (1µg of plasmid DNA each) using the Lipofectamine transfection reagent and the supplied protocol (GIBCO). 18-24 hr after transfection cells were seeded into 96well plates at a density of 50.000 cells per well and cultured for 18-24 additional hr until used in the functional FLIPR assays. The cDNA for Gα16 was cloned from TF1 cells by RT-PCR and ligated into the pCDNA1.1 mammalian expression vector (Invitrogen). Murine wild type Gαq was cloned from cells by RT-PCR and inserted into the BamHl-Nsil-sites of pCDNA1.1. To create the C-terminally modified Gαqi5 subunit, in which the last five aa of wt Gαq were replaced with the correspoding Gαi sequence, a 175-bp Bg/II-NsiI fragment was replaced, in a two piece ligation, with a synthetic DNA fragment, containing the desired codon changes. The correctness of all PCR-derived sequences was verified by sequencing in both directions.
# (§2) Twenty-four hours after transfection, cells were splitted into 96-well, black-wall microplates (Corning) at a density of 50,000 cells per well. 18-24 hr later, cells were loaded with 95µl of HBSS containing 20 mM Hepes, 2.5 mM probenecid, 4 µM fluorescent calcium indicator dye Fluo4 (Molecular Probes) and 1% fetal bovine serum for 1 h(37°C, 5% CO2). Cells were washed three times with HBSS containing 20 mM Hepes and 2.5 mM probenecid in a cell washer. After the final wash, the solution was aspirated to a residual volume of 100 µl per 96 well. Lipid ligands were dissolved in DMSO as 2 mM stock solutions (treated with ultrasound when necessary) and diluted at least 1:100 into HBSS containing 20 mM HEPES, 2.5 mM probenecid and 0.4 mg/ml fatty acid free bovine serum albumine. Lipids were aliquoted as 2X solutions into a 96 well plate prior to the assay. The fluorometric imaging plate reader (FLIPR, Molecular Devices) was programmed to transfer 100 µl from each well of the ligand microplate to each well of the cellplate and to record fluorescence during 3 min in 1 second intervals during the first minute and 3 second intervals during the last two minutes. Total fluorescence counts from the 18-s to 37-s time points are used to determine agonist activity. The instrument software normalizes the fluorescent reading to give equivalent initial readings at time zero.
# [1] = system: CHO cells transfected with empty vector DNA; experiment: FLIPR assay of intracellular Ca2+ mobilization in control CHO cells without receptor; type: cell-based, chinese hamster; details: S1P 10, 100 and 1000 nM; empty vector DNA (Fig.2A)
# Experimental: CHO-K1 cells were grown in basal ISCOVE medium supplemented with 10% fetal bovine serum at 37°C in a humidified 5% CO2 incubator. For transfections, 2 x 10^5 cells were seeded into 35-mm dishes. About 24 hr later cells were transiently transfected at 50-80% confluency with the indicated receptor and G-protein constructs (1µg of plasmid DNA each) using the Lipofectamine transfection reagent and the supplied protocol (GIBCO). 18-24 hr after transfection cells were seeded into 96well plates at a density of 50.000 cells per well and cultured for 18-24 additional hr until used in the functional FLIPR assays. The cDNA for Gα16 was cloned from TF1 cells by RT-PCR and ligated into the pCDNA1.1 mammalian expression vector (Invitrogen). […]
# Twenty-four hours after transfection, cells were splitted into 96-well, black-wall microplates (Corning) at a density of 50,000 cells per well. […] The fluorometric imaging plate reader (FLIPR, Molecular Devices) was programmed to transfer 100 µl from each well of the ligand microplate to each well of the cellplate and to record fluorescence during 3 min in 1 second intervals during the first minute and 3 second intervals during the last two minutes. Total fluorescence counts from the 18-s to 37-s time points are used to determine agonist activity. The instrument software normalizes the fluorescent reading to give equivalent initial readings at time zero.
# EDG1 receptor = experiment: FLIPR assay of intracellular Ca2+ mobilization in transiently transfected CHO cells; type: cell-based, human; details: S1P 10, 100 and 1000 nM; CHO cells with EDG1 (Fig.2B)
# Experimental: as §1, §2
# EDG6 receptor = experiment: as above; type: cell-based, human; details: S1P 10, 100 and 1000 nM; CHO cells with EDG6, no cotransfected G-protein α subunit (Fig.2E)
# Experimental: as §1, §2
# EDG3 receptor = experiment: as above; type: cell-based, human; details: S1P 10, 100 and 1000 nM; CHO cells with EDG3 (Fig.2C)
# Experimental: as §1, §2
# EDG5 receptor = experiment: as above; type: cell-based, human; details: S1P 10, 100 and 1000 nM; CHO cells with EDG5 (Fig.2D)
# Experimental: as §1, §2
compound,measurement,setting,value
CCCCCCCCCCCCCCCC(O)C(N)COP(=O)(O)O (stereo not drawn) [DHS1P],increase in intracellular Ca^2+,"human EDG8, SEQ ID NO. 2",evoked [Ca^2+]i increases
"CCCCCCCC/C=C\CCCCCCCC(=O)OCC(O)COP(=O)(O)O (stereo not drawn) [LPA, lysophosphatidic acid]",increase in intracellular Ca^2+,"human EDG8, SEQ ID NO. 2",evoked [Ca^2+]i increases
"CCCCCCCCCCCCC/C=C/[C@@H](O)[C@@H](N)COP(=O)(O)O [S1P, sphingosin 1-phosphate]",rises in intracellular Ca^2+,[1],None of the applied S1P concentrations was capable of eliciting significant rises in intracellular Ca^2+
same,release of [Ca^2+]i,"human EDG8, SEQ ID NO. 2; S1P 10, 100 and 1000 nM, CHO cells with EDG8, no cotransfected G-protein α subunit (Fig.2F)",did not release [Ca^2+]i
same,mobilization of Ca^2+,"human EDG8, SEQ ID NO. 2; S1P 10, 100 and 1000 nM, CHO cells with EDG8 cotransfected with Gα16 or Gαqi5 (Fig.2F)",gained the ability to mobilize Ca^2+
same,increase in intracellular Ca^2+,"human EDG8, SEQ ID NO. 2",most potent activator of EDG8
same,mobilization of [Ca^2+]i,EDG1 receptor,mobilize [Ca^2+]i
same,Ca^2+ increase above basal levels,EDG6 receptor,failed to detect a significant Ca^2+ increase above basal levels
same,mobilization of [Ca^2+]i,EDG3 receptor,mobilize [Ca^2+]i
same,mobilization of [Ca^2+]i,EDG5 receptor,mobilize [Ca^2+]i
"CCCCCCCCCCCCCC=CC(O)C(N)COP(=O)([O-])OCC[N+](C)(C)C (stereo not drawn) [SPC, sphingosylphosphorylcholine]",increase in intracellular Ca^2+,"human EDG8, SEQ ID NO. 2",failed to generate any significant response
lysophosphatidylcholine [LPC],increase in intracellular Ca^2+,"human EDG8, SEQ ID NO. 2",failed to generate any significant response
